Test results: patent publication US9149465B2, “Isoxazolines as inhibitors of fatty acid amide hydrolase” (Infinity Pharmaceuticals, Inc., priority 2009, dated 2015)

These compounds were tested against T1, human FAAH (Homo sapiens, UniProt O00519) (assay: Inhibition of human FAAH (AMC arachidonoyl amide fluorescence assay)). Settings: inhibitor preincubated 30 minutes at room temperature; 20 μM AMC arachidonoyl amide; 4 hours; read-out: Activity (Ki, inhibitors of human FAAH).
T1 construct: host or cells: COS-7 cells, transient transfection; 13,000 g membrane fraction solubilised in 1% Triton X-100
T1 sequence (O00519 1-579): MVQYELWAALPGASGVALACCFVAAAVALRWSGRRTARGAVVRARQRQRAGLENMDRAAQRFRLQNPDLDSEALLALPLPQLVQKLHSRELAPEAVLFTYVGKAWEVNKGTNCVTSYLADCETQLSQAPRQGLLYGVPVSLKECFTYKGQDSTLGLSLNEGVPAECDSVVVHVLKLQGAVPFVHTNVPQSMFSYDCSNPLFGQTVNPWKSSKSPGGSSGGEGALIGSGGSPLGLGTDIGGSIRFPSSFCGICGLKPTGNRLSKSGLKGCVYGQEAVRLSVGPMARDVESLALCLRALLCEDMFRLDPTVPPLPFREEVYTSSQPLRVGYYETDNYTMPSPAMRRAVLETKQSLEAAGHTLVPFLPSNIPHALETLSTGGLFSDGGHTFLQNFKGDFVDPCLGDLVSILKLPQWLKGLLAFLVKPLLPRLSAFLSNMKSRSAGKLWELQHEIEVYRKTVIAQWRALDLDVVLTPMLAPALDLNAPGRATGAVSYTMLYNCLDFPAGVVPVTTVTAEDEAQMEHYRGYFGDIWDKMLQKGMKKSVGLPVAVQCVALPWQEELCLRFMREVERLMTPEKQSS
Type: biochemical
Method: Human FAAH Preparation: COS-7 cells were split the day before, 1:5 into 150 mm x […] cell culture dishes (Corning Inc., Cat. No. 430599). Transient transfection took place at 30-40% confluency according to FuGENE 6 Transfection Reagent (Roche, Cat. No. 11814 443 001).
Transfection Procedure: The FuGENE transfection 6 reagent (45 uL) was added to 1410 μL of media (DMEM, serum free without pen/strep) in a 15 mL conical tube and incubated at room temp for 5 minutes, followed by the addition of FAAH plasmid DNA (15 μg) (OriGene Cat. No. TC119221, Genbank Accession No. NM_001441.1, 0.67 ug/uL) and a further incubation of 15 minutes at room temperature. The resulting solution was added into one dish of 30-40% confluent COS-7 cells in a drop-wise manner. The COS-7 cell dish was subsequently incubated for 48 hours. The cells are then harvested.
Harvest procedure: Media was aspirated from the dishes and the cells rinsed with 10 mL PBS. The PBS was removed and 3 mL of PBS added to the dish. The dish was scraped to resuspend the cells, and the subsequent cell suspension collected into a 15 mL conical tube. The cells were pelleted by centrifugation at 1200 rpm for 5 minutes in a bench top centrifuge. PBS was removed and the cell pellet snap frozen in liquid nitrogen and stored at −80° C.
COS-7 cells —FAAH purification: • (1) Fractionation: Frozen cell pellets from transient transfections were thawed on ice and resuspended in 12.5 mM Hepes pH 8.0, 100 mM NaCl, 1 mM EDTA (10 mL/0.2 g cell pellet). The pellets were dounce homogenized and then sonicated to produce cell extract. The cell extract was subsequently centrifuged at 1000 g to remove cellular debris. The pellet was discarded and the supernatant centrifuged at 13,000 g for 20 minutes. The pellet contained membrane bound FAAH. The supernatant was discarded and the pellet resolubilized. • (2) Re-solubilization: The fraction of interest, (13,000 g, membrane fraction) was re-suspended in 2.3 mL re-suspension buffer (20 mM Hepes pH 7.8, 10% v/v Glycerol, 1 mM EDTA, 1% Triton X-100) and the sample incubated on ice for 1 hour and then centrifuged to remove any particulate matter. The supernatant containing solubilized human FAAH was aliquoted and snap frozen in liquid nitrogen and stored at −80° C. until use. • (3) Characterization: Protein Concentration determined by Bradford assay. • SDS gel and Western blot to confirm presence of FAAH • FAAH activity assay • Km determination-96-well assay • Linear dependence—96-well assay • Standard compound Ki determination—384-well assay
Human FAAH assay; Experimental Protocol: A 0.1 mg/mL Human FAAH solution was made up in FAAH reaction buffer, and 24 ul pipeted into a 384 well plate. To this was added 1 μL of a 3 fold serially diluted inhibitor from a DMSO stock solution. The FAAH solution and inhibitor were incubated for 30 minutes at room temperature. The FAAH reaction was initiated by the addition of 25 μL of 40 μM AMC Arachidonoyl Amide in FAAH reaction buffer, yielding a final reaction human FAAH preparation concentration of 0.05 mg/ml and AMC-Arachidonoyl substrate concentration of 20 μM, reaction volume 50 μL. The reaction was allowed to proceed for 4 hours at room temperature. The reaction was stopped by the addition of 25 μL 12 μM a-ketoheterocycle (Cayman Chemicals, catalogue #10435). The microtiter plate was read in the envision plate reader.
The raw fluorescence was plotted on the y axis and the inhibitor concentration on the x axis to give a dose response inhibition curve. The data was fitted to a single site competitive inhibition equation, fixing the Km for the human enzyme to 12 μM and 9 μM respectively.

SMILES | Ki [nM]
FC(F)(F)Oc1ccc(C2CC(Oc3ccc(-c4ncco4)nc3)=NO2)cc1 (racemic) [I-163] | ≤ 100
CC1(c2ccc(OC(F)(F)F)cc2)CC(Oc2ccc(-c3nccs3)nc2)=NO1 (racemic) [I-164] | ≤ 100
FC(F)(F)Oc1ccc(C2CC(Oc3ccc(-c4cn[nH]c4)nc3)=NO2)cc1 (racemic) [I-165] | ≥ 1000
c1ccc(C2CC(Oc3cncnc3)=NO2)cc1 (racemic) [I-166] | 100 to 1000
CC1(c2ccc(OC(F)(F)F)cc2)CC(Oc2ccc(S(C)(=O)=O)nc2)=NO1 (racemic) [I-167] | ≤ 100
FC(F)(F)c1ccc(C2CC(Oc3cncnc3)=NO2)cc1 (racemic) [I-168] | 100 to 1000
CS(=O)(=O)c1ccc(OC2=NOC(c3ccc(C(F)(F)F)cc3)C2)cn1 (racemic) [I-169] | ≤ 100
O=C(O)c1ccc(OC2=NOC(c3ccc(C(F)(F)F)cc3)C2)cn1 (racemic) [I-170] | ≤ 100
CC1(c2ccc(OC(F)(F)F)cc2)CC(n2cnc(C(=O)O)n2)=NO1 (racemic) [I-171] | ≥ 1000
CC1(c2ccc(OC(F)(F)F)cc2)CC(Oc2cc3ccccn3n2)=NO1 (racemic) [I-172] | ≥ 1000
FC(F)(F)Oc1ccc(C2CC(Oc3ccc(-c4ccc[nH]4)nc3)=NO2)cc1 (racemic) [I-173] | ≤ 100
FC(F)(F)Oc1ccc(C2CC(Oc3cccc(-c4nnn[nH]4)c3)=NO2)cc1 (racemic) [I-174] | 100 to 1000
FC(F)(F)Oc1ccc(C2CC(Oc3ccc(-c4nnn[nH]4)cc3)=NO2)cc1 (racemic) [I-175] | 100 to 1000
O=C(O)c1cccc(OC2=NOC(c3ccc(OC(F)(F)F)cc3)C2)c1 (racemic) [I-176] | ≥ 1000
O=C(O)c1ccc(OC2=NOC(c3ccc(OC(F)(F)F)cc3)C2)cc1 (racemic) [I-177] | 100 to 1000
N#Cc1ccc(OC2=NOC(c3ccc(OC(F)(F)F)cc3)C2)cn1 (racemic) [I-178] | 100 to 1000
CCCCc1ccc([C@H]2CC(Oc3cncnc3)=NO2)cc1 (racemic) [I-180] | ≤ 100
CCCCc1ccc(C2CC(Oc3ccc(S(C)(=O)=O)nc3)=NO2)cc1 (racemic) [I-181] | ≤ 100
CCS(=O)(=O)c1ccc(OC2=NOC(c3ccc(OC(F)(F)F)cc3)C2)cn1 (racemic) [I-182] | ≤ 100
O=S(=O)(c1ccc(OC2=NOC(c3ccc(OC(F)(F)F)cc3)C2)cn1)C1CCCC1 (racemic) [I-183] | 100 to 1000
CC(C)CS(=O)(=O)c1ccc(OC2=NOC(c3ccc(OC(F)(F)F)cc3)C2)cn1 (racemic) [I-184] | 100 to 1000
CC1(c2ccc(OC(F)(F)F)cc2)CC(Oc2ccc(-c3ncco3)nc2)=NO1 (racemic) [I-185] | ≤ 100
FC(F)(F)Oc1ccc(C2CC(Oc3ccc(-c4ccco4)nc3)=NO2)cc1 (racemic) [I-186] | ≤ 100
Cc1ccc(-c2ccc(OC3=NOC(c4ccc(OC(F)(F)F)cc4)C3)cn2)o1 (racemic) [I-187] | ≤ 100
O=C(O)c1ccc(-c2ccc(OC3=NOC(c4ccc(OC(F)(F)F)cc4)C3)cn2)o1 (racemic) [I-188] | ≥ 1000
Cn1nccc1-c1ccc(OC2=NOC(c3ccc(OC(F)(F)F)cc3)C2)cn1 (racemic) [I-189] | ≤ 100
Cc1cc(-c2ccc(OC3=NOC(c4ccc(OC(F)(F)F)cc4)C3)cn2)n(C)n1 (racemic) [I-190] | ≤ 100

SMILES | Ki [nM]
Cn1nc(C(F)(F)F)cc1-c1ccc(OC2=NOC(c3ccc(OC(F)(F)F)cc3)C2)cn1 (racemic) [I-191] | ≥ 1000
FC(F)(F)Oc1ccc(C2CC(Oc3ccc(-c4ccn[nH]4)nc3)=NO2)cc1 (racemic) [I-192] | ≤ 100
O=C(O)c1ccc(-c2ccc(OC3=NOC(c4ccc(OC(F)(F)F)cc4)C3)cn2)s1 (racemic) [I-193] | 100 to 1000
FC(F)(F)Oc1ccc(C2CC(Oc3ccc(-c4cnoc4)nc3)=NO2)cc1 (racemic) [I-194] | ≤ 100
FC(F)(F)Oc1ccc(C2CC(Oc3ccc(-c4nnn[nH]4)nc3)=NO2)cc1 (racemic) [I-195] | ≤ 100
CCS(=O)(=O)c1ccc(OC2=NOC(C)(c3ccc(OC(F)(F)F)cc3)C2)cn1 (racemic) [I-196] | ≤ 100
CS(=O)(=O)c1ccc(OC2=NOC(c3ccc(Oc4ccccc4)cc3)C2)cn1 (racemic) [I-197] | ≤ 100
CC1(c2ccc(OC(F)(F)F)cc2)CC(Oc2ccc(-n3cccn3)nc2)=NO1 (racemic) [I-198] | ≤ 100
Cc1noc(-c2cccc(OC3=NOC(c4ccc(OC(F)(F)F)cc4)C3)c2)n1 (racemic) [I-199] | ≥ 1000
Cn1nnc(-c2ccc(OC3=NOC(c4ccc(OC(F)(F)F)cc4)C3)cc2)n1 (racemic) [I-200] | 100 to 1000
FC(F)(F)Oc1ccc(C2CC(Oc3ccc(-c4nnco4)cc3)=NO2)cc1 (racemic) [I-201] | ≤ 100
O=C(c1ccc([C@H]2CC(Br)=NO2)cc1)N1CCOCC1 (racemic) [I-202] | 100 to 1000
CN(C)C(=O)c1ccc([C@H]2CC(Br)=NO2)cc1 (racemic) [I-203] | ≤ 100
CNC(=O)c1ccc([C@H]2CC(Br)=NO2)cc1 (racemic) [I-204] | 100 to 1000
O=S(=O)(c1ccc([C@H]2CC(Br)=NO2)cc1)N1CCOCC1 (racemic) [I-205] | ≤ 100
CN(C)S(=O)(=O)c1ccc([C@H]2CC(Br)=NO2)cc1 (racemic) [I-206] | ≤ 100
CNS(=O)(=O)c1ccc([C@H]2CC(Br)=NO2)cc1 (racemic) [I-207] | ≤ 100
O=C(c1ccc([C@H]2CC(Br)=NO2)cc1)N1CCCCC1 (racemic) [I-208] | ≤ 100
O=C(c1ccc([C@H]2CC(Br)=NO2)cc1)N1CCCC1 (racemic) [I-209] | ≤ 100
O=S(=O)(c1ccc([C@H]2CC(Br)=NO2)cc1)N1CCCCC1 (racemic) [I-210] | ≤ 100
O=S(=O)(c1ccc([C@H]2CC(Br)=NO2)cc1)N1CCCC1 (racemic) [I-211] | ≤ 100
CN(C)C(=O)c1ccc(C2CC(Oc3ccc(S(C)(=O)=O)nc3)=NO2)cc1 (racemic) [I-212] | 100 to 1000
CN(C)S(=O)(=O)c1ccc([C@H]2CC(Oc3ccc(S(C)(=O)=O)nc3)=NO2)cc1 (racemic) [I-213] | ≤ 100
CS(=O)(=O)c1ccc(OC2=NO[C@@H](c3ccc(C(=O)NCc4ccccc4)cc3)C2)cn1 (racemic) [I-214] | ≤ 100
O=C(NCc1ccccc1)c1ccc([C@H]2CC(Oc3ccc(C(=O)O)nc3)=NO2)cc1 (racemic) [I-215] | 100 to 1000
FC(F)(F)c1ccc(C2CC(Oc3ccc(Br)nc3)=NO2)cc1 (racemic) [I-216] | 100 to 1000
FC(F)(F)c1ccc(C2CC(Oc3cccc(-c4nnco4)c3)=NO2)cc1 (racemic) [I-217] | ≤ 100
